Molecules are shown by their SMILES.

In this experiment the test system is Grape Downy Mildew (Plasmopara viticola). Put plainly: Test Example 6: treating grape downy mildew, foliage application. Conditions: 500 ppm, foliage application 1 day after inoculation (curative), grape (Berry-A or Chardonnay seedling), 5 days green house then 1 day high humidity.

Method: Such control effect was evaluated by visually observing the area of blotch on a test plant during a test and then comparing the area of the blotch of a plant treated with the controlling reagent of the present invention with the area of the blotch of an untreated plant.
A plastic pot was filled with sandy soil, and grape (variety: Berry-A or Chardonnay seedling) was then seeded. The grape plants were allowed to grow in a green house for 40 days. A water suspension of zoosporangium of grape Plasmopara viticola was inoculated to the aforementioned pot by spaying it. Thereafter, the grape plants were left at 23° C. at a high humidity for 1 day, and they were then air-dried, so as to obtain grape downy mildew-infected nursery plants. […] The prepared flowable formulations were set to a predetermined concentration (500 ppm) by diluting them with water, and they were then subjected to foliage application such that they could be sufficiently attached to the leaves of the aforementioned nursery grape plants. After completion of the foliage application, the plants were subjected to air-drying, and they were then left at 23° C. in a green house for 5 days. Thereafter, the plants were further left at 23° C. at a high humidity for 1 day. Thereafter, the affected areas thereof were examined.

For the compound `Cc1ccc(Oc2ccc(CNC(=O)c3cccnc3N)s2)cc1` [compound 236], the “affected areas of treated plants relative to affected areas of untreated plants” value was at most 30%.

The values above are taken from US20110009454A1, “COMPOSITION FOR AGRICULTURAL USE FOR CONTROLLING OR PREVENTING PLANT DISEASES CAUSED BY PLANT PATHOGENS” (SUMITOMO CHEMICAL COMPANY, LIMITED, priority 2008, published 2011).
